Laboratory results reported in ChEMBL document CHEMBL4052825, “Identification of Novel Coumestan Derivatives as Polyketide Synthase 13 Inhibitors against Mycobacterium tuberculosis” (J Med Chem, 2018).
≈ marks a conversion by molar mass, not a printed value.

Tests used:
[1] = system: Mycobacterium tuberculosis; assay: Antitubercular activity against resistant Mycobacterium tuberculosis harboring PKS13 mutant after 12 to 24 hrs by MABA; format: functional
[2] = Selectivity ratio of MIC=<90 for resistant Mycobacterium tuberculosis harboring PKS13 mutant to MIC=<90 for Mycobacterium tuberculosis H37Rv
[3] = system: Mycobacterium tuberculosis; assay: Antitubercular activity against isoniazid/rifampicin/fluoroquinolone-resistant Mycobacterium tuberculosis; format: functional

| SMILES | MIC=<90 [1] [µg/mL] | Selectivity ratio [2] | MIC [3] [µM] |
| --- | --- | --- | --- |
| CCOC(=O)c1c(-c2ccc(F)cc2)oc2ccc(O)c(CN3CCCCC3)c12 | 4 (≈ 10.1 µM) | 8 |  |
| COc1ccc2c(c1)oc(=O)c1c2oc2ccc(O)c(CN3CCCCC3)c21 | 16 (≈ 42.2 µM) | 64 |  |
| CCOC(=O)c1c(NC(=O)c2c(F)c(F)c(F)c(F)c2F)sc2c1CCN(CC)C2 |  |  | 0.2 to 0.4 (≈ 0.0897 to 0.179 µg/mL) |
| O=c1oc2ccccc2c2oc3ccc(O)c(CN4CCCCC4)c3c12 | 16 (≈ 45.8 µM) | 64 to 128 |  |
